Laboratory results from patent publication US20250179059A1 (The Regents of the University of California, priority 2021, published 2025).

Target: T1, human BRD4 bromodomain II (Homo sapiens, UniProt O60885)
T1 construct: human BRD4 bromodomain II [based on Genbank NM_058243, residues 349-460]; host or cells: E. coli
Test: Bromodomain binding assay (AlphaScreen), BRD4 BDII
Conditions: AlphaScreen assay, Table C2; read-out: BRD4 BDII IC50
In short: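 Tagged BRD4 BDI or BDII constructs, expressed in E. coli, competed against a K5/K8/K12/K16-acetylated biotin-H4 peptide. Proximity signal between bead pairs after room-temperature incubations gave concentration-response curves, from which IC50 was derived.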

Structure (SMILES) | IC50
O=C1CCCN1c1c(Cl)cc(-c2cccc(-c3cc(N4CCNCC4)no3)c2O)cc1Cl [Example 172, 1-(3,5-dichloro-2′-hydroxy-3′-(3-(piperazin-1-yl)isoxazol-5-yl)-[1,1′-biphenyl]-4-yl)pyrrolidin-2-one] | > 100 nM
CC(=O)Nc1ccc(-c2cccc(-c3cc(F)cc(N4CCNCC4)c3)c2O)cc1F [Example 178, N-(3,3″-difluoro-2′-hydroxy-5″-(piperazin-1-yl)-[1,1′:3′,1″-terphenyl]-4-yl)acetamide] | 10 to 100 nM
CC(=O)Nc1ccc(-c2cccc(-c3cccc(N4CCN[C@@H](C)C4)c3)c2O)cc1F [Example 179, (S)-N-(3-fluoro-2′-hydroxy-3″-(3-methylpiperazin-1-yl)-[1,1′:3′,1″-terphenyl]-4-yl)acetamide] | 10 to 100 nM
CC(=O)Nc1ccc(-c2cccc(-c3cc(N4CCNCC4)ccc3C)c2O)cc1F [Example 181, N-(3-fluoro-2′-hydroxy-2″-methyl-5″-(piperazin-1-yl)-[1,1′:3′,1″-terphenyl]-4-yl)acetamide] | > 100 nM
CC(=O)Nc1ccc(-c2cccc(-c3cccc(N4C[C@@H]5CC[C@H]4CN5)c3)c2O)cc1F [Example 183, N-(3″-((1S,4S)-2,5-diazabicyclo[2.2.2]octan-2-yl)-3-fluoro-2′-hydroxy-[1,1′:3′,1″-terphenyl]-4-yl)acetamide] | 10 to 100 nM
CC(=O)Nc1c(F)cc(-c2cccc(-c3cccc(N4CCNCC4)c3)c2O)cc1OCC1CC1 [Example 184, N-(3-(cyclopropylmethoxy)-5-fluoro-2′-hydroxy-3″-(piperazin-1-yl)-[1,1′:3′,1″-terphenyl]-4-yl)acetamide] | 10 to 100 nM
CC(=O)Nc1ccc(-c2cccc(-c3ccc(NC(C)=O)c(N4CCNCC4)c3)c2O)cc1N1CCNCC1 [Example 185, N,N′-(2′-hydroxy-3,3″-di(piperazin-1-yl)-[1,1′:3′,1″-terphenyl]-4,4″-diyl)diacetamide] | > 100 nM
CC(=O)Nc1ccc(-c2cccc(-c3cccc(N4CCC(CN)CC4)c3)c2O)cc1F [Example 186, N-(3″-(4-(aminomethyl)piperidin-1-yl)-3-fluoro-2′-hydroxy-[1,1′:3′,1″-terphenyl]-4-yl)acetamide] | > 100 nM
CC(=O)Nc1ccc(-c2cccc(-c3cc(N4CCNCC4)ccc3F)c2O)cc1F [Example 187, N-(2″,3-difluoro-2′-hydroxy-5″-(piperazin-1-yl)-[1,1′:3′,1″-terphenyl]-4-yl)acetamide] | 10 to 100 nM
O=C1CCCN1c1ccc(-c2cccc(-c3ccccc3)c2O)cc1F [Example 188, 1-(3-fluoro-2′-hydroxy-[1,1′:3′,1″-terphenyl]-4-yl)pyrrolidin-2-one] | > 100 nM
O=C1CCCN1c1ccc(-c2cccc(-c3ccncc3)c2O)cc1F [Example 190, 1-(3-fluoro-2′-hydroxy-3′-(pyridin-4-yl)-[1,1′-biphenyl]-4-yl)pyrrolidin-2-one] | 10 to 100 nM
CC(=O)Nc1ccc(-c2cccc(-c3cccc(N4CCNCC4=O)c3)c2O)cc1F [Example 191, N-(3-fluoro-2′-hydroxy-3″-(2-oxopiperazin-1-yl)-[1,1′:3′,1″-terphenyl]-4-yl)acetamide] | > 100 nM
CC(=O)Nc1ccc(-c2cccc(-c3cccc(N4CCC5(CCNC5)CC4)c3)c2O)cc1F [Example 192, N-(3-fluoro-2′-hydroxy-3″-(2,8-diazaspiro[4.5]decan-8-yl)-[1,1′:3′,1″-terphenyl]-4-yl)acetamide] | 10 to 100 nM
CC(=O)Nc1ccc(-c2cccc(-c3cccc(N4CCC5(CCNCC5)CC4)c3)c2O)cc1F [Example 195, N-(3-fluoro-2′-hydroxy-3″-(3.9-diazaspiro[5.5]undecan-3-yl)-[1,1′:3′,1″-terphenyl]-4-yl)acetamide] | 10 to 100 nM
CC(=O)Nc1ccc(-c2cccc(-c3cccc(N4CCC5(CC4)CNC5)c3)c2O)cc1F [Example 196, N-(3-fluoro-2′-hydroxy-3″-(2,7-diazaspiro[3.5]nonan-7-yl)-[1,1′:3′,1″-terphenyl]-4-yl)acetamide] | 10 to 100 nM
COC(=O)c1cc(-c2cccc(-c3ccc(NC(C)=O)c(F)c3)c2O)ccn1 [Example 201, Methyl 4-(4′-acetamido-3′-fluoro-2-hydroxy-[1,1′-biphenyl]-3-yl)picolinate] | 10 to 100 nM
CC(=O)Nc1ccc(-c2cccc(-c3cccc(-c4ccc(N)nc4)c3)c2O)cc1F [Example 202, N-(3″-(6-aminopyridin-3-yl)-3-fluoro-2′-hydroxy-[1,1′:3′,1″-terphenyl]-4-yl)acetamide] | > 100 nM
O=C1CCCN1c1c(F)cc(-c2cccc(-c3ccncc3)c2O)cc1F [Example 207, 1-(3,5-difluoro-2′-hydroxy-3′-(pyridin-4-yl)-[1,1′-biphenyl]-4-yl)pyrrolidin-2-one] | > 100 nM
CC(=O)Nc1ccc(-c2cccc(-c3cccc(-c4nc[nH]n4)c3)c2O)cc1F [Example 208, N-(3-fluoro-2′-hydroxy-3″-(1H-1,2,4-triazol-3-yl)-[1,1′:3′,1″-terphenyl]-4-yl)acetamide] | > 100 nM
CC(=O)Nc1ccc(-c2cccc(-c3ccnc(C(N)=O)c3)c2O)cc1F [Example 211, 4-(4′-acetamido-3′-fluoro-2-hydroxy-[1,1′-biphenyl]-3-yl)picolinamide] | > 100 nM
CC(=O)Nc1ccc(-c2cccc(-c3csc(N4CCNCC4)n3)c2O)cc1F [Example 212, N-(3-Fluoro-2′-hydroxy-3′-(2-(piperazin-1-yl)thiazol-4-yl)-[1,1′-biphenyl]-4-yl)acetamide] | > 100 nM
O=C1CCCN1c1ccc(-c2cccc(-c3ccncc3)c2O)cc1Cl [Example 213, 1-(3-Chloro-2′-hydroxy-3′-(pyridin-4-yl)-[1,1′-biphenyl]-4-yl)pyrrolidin-2-one 2,2,2-trifluoroacetate] | 10 to 100 nM

Other lines, results leading:

IC50 | Structure (SMILES)
10 to 100 nM | CC(=O)Nc1ccc(-c2cccc(-c3cccc(N4CC5CCC4CN5)c3)c2O)cc1F (stereo not shown) [Example 174, N-(3″-(2,5-diazabicyclo[2.2.2]octan-2-yl)-3-fluoro-2′-hydroxy-[1,1′:3′,1″-terphenyl]-4-yl)acetamide]
10 to 100 nM | CC(=O)Nc1c(F)cc(-c2cccc(-c3cccc(N4CCNCC4)c3)c2O)cc1OC1CC1 [Example 175, N-(3-cyclopropoxy-5-fluoro-2′-hydroxy-3″-(piperazin-1-yl)-[1,1′:3′,1″-terphenyl]-4-yl)acetamide]
10 to 100 nM | CC(=O)Nc1ccc(-c2cccc(-c3cccc(N4C[C@H]5CC[C@@H](C4)N5)c3)c2O)cc1F [Example 176, N-(3″-((1R,5S)-3,8-diazabicyclo[3.2.1]octan-3-yl)-3-fluoro-2′-hydroxy-[1,1′:3′,1″-terphenyl]-4-yl)acetamide]
10 to 100 nM | CC(=O)Nc1ccc(-c2cccc(-c3cccc(N4CCC(N)C4)c3)c2O)cc1F (stereo not shown) [Example 177, N-(3″-(3-aminopyrrolidin-1-yl)-3-fluoro-2′-hydroxy-[1,1′:3′,1″-terphenyl]-4-yl)acetamide]
1 to 10 nM | CC(=O)Nc1ccc(-c2cccc(-c3cccc(N4CC5(CCNC5)CC4=O)c3)c2O)cc1F (stereo not shown) [Example 194, N-(3-fluoro-2′-hydroxy-3″-(3-oxo-2,7-diazaspiro[4.4]nonan-2-yl)-[1,1′:3′,1″-terphenyl]-4-yl)acetamide]
1 to 10 nM | O=C1NCCN1c1ccc(-c2cccc(-c3cccc(N4CCNCC4)c3)c2O)cc1F [Example 197, 1-(3-fluoro-2′-hydroxy-3″-(piperazin-1-yl)-[1,1′:3′,1″-terphenyl]-4-yl)imidazolidin-2-one]
1 to 10 nM | CC(=O)Nc1ccc(-c2cccc(-c3ccnc(N4CCC(CO)CC4)c3)c2O)cc1F [Example 198, N-(3-fluoro-2′-hydroxy-3′-(2-(4-(hydroxymethyl)piperidin-1-yl)pyridin-4-yl)-[1,1′-biphenyl]-4-yl)acetamide]
1 to 10 nM | CC(=O)Nc1ccc(-c2cccc(-c3cccc(N4CC(C)NC(C)C4)c3)c2O)cc1F (stereo not shown) [Example 200, N-(3″-(3,5-dimethylpiperazin-1-yl)-3-fluoro-2′-hydroxy-[1,1′:3′,1″-terphenyl]-4-yl)acetamide]
1 to 10 nM | CC(=O)Nc1ccc(-c2cccc(-c3cccc(N4CCC(CN)C4)c3)c2O)cc1F (stereo not shown) [Example 203, N-(3″-(3-(aminomethyl)pyrrolidin-1-yl)-3-fluoro-2′-hydroxy-[1,1′:3′,1″-terphenyl]-4-yl)acetamide]
1 to 10 nM | CC(=O)Nc1ccc(-c2cccc(-c3cccc(-c4ccnc(N)c4)c3)c2O)cc1F [Example 204, N-(3″-(2-aminopyridin-4-yl)-3-fluoro-2′-hydroxy-[1,1′:3′,1″-terphenyl]-4-yl)acetamide]
1 to 10 nM | CC(=O)Nc1ccc(-c2cccc(-c3ccnc(C(=O)O)c3)c2O)cc1F [Example 205, 4-(4′-acetamido-3′-fluoro-2-hydroxy-[1,1′-biphenyl]-3-yl)picolinic acid]
1 to 10 nM | CC(=O)Nc1ccc(-c2cccc(-c3cccc(C4CCNCC4)c3)c2O)cc1F [Example 210, N-(3-fluoro-2′-hydroxy-3″-(piperidin-4-yl)-[1,1′:3′,1″-terphenyl]-4-yl)acetamide]
1 to 10 nM | CC(=O)Nc1ccc(-c2cccc(-c3cc(N4CCNCC4)cc(C(F)(F)F)c3)c2O)cc1F [Example 215, N-(3-fluoro-2′-hydroxy-3″-(piperazin-1-yl)-5″-(trifluoromethyl)-[1,1′:3′,1″-terphenyl]-4-yl)acetamide]
1 to 10 nM | O=C1CCCN1c1ccc(-c2cc(F)cc(-c3ccnc(N4CCNCC4)c3)c2O)cc1F [Example 216, 1-(3,5′-Difluoro-2′-hydroxy-3′-(2-(piperazin-1-yl)pyridin-4-yl)-[1,1′-biphenyl]-4-yl)pyrrolidin-2-one]
1 to 10 nM | CC(=O)Nc1ccc(-c2cccc(-c3cc(N4CCNCC4)nc(N4CCNCC4)c3)c2O)cc1F [Example 218, N-(3′-(2,6-di(piperazin-1-yl)pyridin-4-yl)-3-fluoro-2′-hydroxy-[1,1′-biphenyl]-4-yl)acetamide]
